For one assay, the target named is T1, Alpha-galactosidase A (Rattus norvegicus, UniProt D3ZJF9).
T1 sequence (D3ZJF9 whole entry): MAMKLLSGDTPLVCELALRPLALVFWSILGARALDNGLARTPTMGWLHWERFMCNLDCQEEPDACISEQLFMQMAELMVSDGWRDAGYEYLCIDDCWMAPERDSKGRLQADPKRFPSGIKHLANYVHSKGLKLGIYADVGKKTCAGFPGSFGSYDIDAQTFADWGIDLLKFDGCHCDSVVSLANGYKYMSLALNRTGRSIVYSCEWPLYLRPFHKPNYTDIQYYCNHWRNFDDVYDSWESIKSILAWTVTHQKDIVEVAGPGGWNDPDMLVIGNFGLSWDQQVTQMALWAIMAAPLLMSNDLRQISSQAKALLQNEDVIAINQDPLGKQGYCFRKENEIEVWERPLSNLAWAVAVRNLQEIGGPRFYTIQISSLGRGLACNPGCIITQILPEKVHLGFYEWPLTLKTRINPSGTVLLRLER
Put plainly: Inhibitory activity against alpha-galactosidase from rat epididymis.

Another assay addresses T2, Beta-galactosidase (Bos taurus, UniProt Q58D55).
T2 sequence (Q58D55 whole entry): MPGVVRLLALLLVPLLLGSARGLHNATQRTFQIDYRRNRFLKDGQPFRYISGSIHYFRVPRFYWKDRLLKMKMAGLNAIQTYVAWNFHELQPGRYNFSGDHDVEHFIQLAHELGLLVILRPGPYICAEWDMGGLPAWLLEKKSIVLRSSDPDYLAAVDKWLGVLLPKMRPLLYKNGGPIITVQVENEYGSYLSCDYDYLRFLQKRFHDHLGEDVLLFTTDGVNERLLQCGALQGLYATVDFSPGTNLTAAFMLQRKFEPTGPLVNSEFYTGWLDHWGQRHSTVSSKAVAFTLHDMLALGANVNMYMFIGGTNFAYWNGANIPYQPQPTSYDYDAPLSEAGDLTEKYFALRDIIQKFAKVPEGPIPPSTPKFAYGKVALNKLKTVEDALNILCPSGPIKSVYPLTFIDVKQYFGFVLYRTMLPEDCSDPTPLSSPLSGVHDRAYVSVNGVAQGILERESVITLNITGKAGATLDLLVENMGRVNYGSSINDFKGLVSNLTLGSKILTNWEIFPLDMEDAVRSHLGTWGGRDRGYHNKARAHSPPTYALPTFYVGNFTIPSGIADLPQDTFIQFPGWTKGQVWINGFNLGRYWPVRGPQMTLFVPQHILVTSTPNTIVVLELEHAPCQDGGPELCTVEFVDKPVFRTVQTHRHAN
In words: Inhibitory activity against beta-galactosidase from bovine liver.

SMILES strings stand for the structures.

Consider `OCC1NC(CO)[C@H](O)[C@@H](O)[C@@H]1O` (stereo partly drawn), for which the IC50 against Alpha-galactosidase A is 4.5 µM.
As to `OC[C@H]1N[C@H](CO)[C@@H](O)[C@@H](O)C1O` (single isomer, unassigned), the IC50 at Alpha-galactosidase A worked out at 67 µM; on Beta-galactosidase, 160 µM.

For the origin of these results see ChEMBL document CHEMBL1131876, “Revised structure of a homonojirimycin isomer from Aglaonema treubii: first example of a naturally occurring alpha-homoallonojirimycin” (Bioorg Med Chem Lett, 1999).
